Columns and labels:
[1] = tested on: penile corpus cavernosum smooth muscles; experiment: Relaxation of phenylephrine-contracted penile corpus cavernosum smooth muscle sections in organ bath; design: species or system New Zealand white rabbit; settings: for Relaxation (%): conc. 10^−4 M, section contracted with 10^−4 M phenylephrine
From the text: A New Zealand white rabbit (2.5 to 3.0 kg) was anesthetized and the overall penis was then dissected from the rabbit. The penile corpus cavernosum smooth muscles were separated from the tunica albuginea in a low-temperature Tyrode's solution aerated with a 95% O2-5% CO2 gas mixture, while observing with a dissection microscope, to prepare a penis section. The penis section was fixed in an organ bath (10 cc) containing a Tyrode's solution. At this time, the one end of the penis section was fixed on the bottom of the organ bath, and a variation in isometric tension of the penile corpus cavernosum smooth muscles was then measured with a force displacement transducer at the other end thereof. After reaching an equilibrium state, the penile section was contracted by treatment of 10^−4 M phenylephrine.
According to the drug used to treat the penile section, the experimental groups used herein were divided into six groups, i.e., i) a group with administration of SNP as a NO donor, ii) a group with administration of Zaprinast as an inhibitor against PDE-5, an enzyme that mediates hydrolysis of c-GMP, a group with administration of acetylcholine that acts on the nervous system, iv) a group with administration of metformin, one of conventional AMPK activators, v) a group with administration of AICAR (5-aminoimidazole-4-carboxamide-1-beta-D-ribofuranoside), and vi) a group with administration of the compound 1 according to the present invention. These groups were compared with one another, in view of relaxation (%) of the penile corpus cavernosum.

diabetes-induced rats = experiment: Internal pressure of penile corpus cavernosum after electrostimulation in STZ diabetes-induced rats; format: in vivo, Sprague-Dawley white rats; settings: oral for 5 weeks, AICAR 500 mg/kg, compound 1 250 mg/kg, FIG. 7
From the text: In order to confirm in vivo whether penile erection of a diabetes-induced rat has an influence on the internal pressure of the penile corpus cavernosum, 23 Sprague-Dawley white rats (about 300 g) are divided into a normal control group (Group I, n=6), a diabetes-induced control group (Group II, n=4), a group with administration of AICAR following the diabetes-induction (Group III, n=6), and a group with administration of the compound 1 (Group IV, n=7).
STZ (streptozotocin) was used to induce diabetes, and the AICAR and the compound 1 were orally administered in dosages of 500 mg/kg and 250 mg/kg, respectively, for 5 weeks. Each of the experimental groups was systemically anesthetized, intubated into one-side of the carotid in order to measure blood pressure, a electrostimulation-purpose catheter was set in the penile corpus cavernosum nerves in the cavum pelvis, and the internal pressure of the penile corpus cavernosum was measured. Electrostimulation was applied to the group for one minute (frequency: 10 Hz, delay: 4 ms, duration: 5 ms, volt: 3V). An increase in internal pressure of the groups was measured, and the groups were compared with one another in view of the increase in internal pressure.

[2] = tested on: endothelial nitric oxide synthase (eNOS); experiment: Phosphorylation of eNOS in HUVEC cells (anti-pS1177 eNOS); format: cell-based; settings: compound 1 10 uM, FIG. 3
Method: In order to ascertain whether the compound 1 acting as an AMPK activator is implicated in the production of NO, phosphorylation to promote the activity of endothelial nitric oxide synthase (eNOS) was measured. So as to confirm the phosphorylation of eNOS through the compound 1, HUVEC cells were seeded on a 60 mm plate at 1×10^5 in an EBM2/5% FBS medium and cultured for 24 hours. The medium was replaced by a serum-free EBM2 medium and the treatment with the compound 1 (10 uM) was performed for a predetermined period. An anti-pS1177 eNOS was used to measure the phosphorylated eNOS.

[3] = tested on: penile corpus cavernosum smooth muscles; experiment: Compound 1-induced relaxation after endothelium removal (CHAPS) and HO-2 inactivation (ZnPP); design: species or system New Zealand white rabbits
From the text: To ascertain the pharmacological mechanism the compound 1 acts on the relaxation of the penile corpus cavernosum smooth muscles in the New Zealand white rabbits, the smooth muscle sections were relaxed by the treatment of the compound 1 and endothelial cells were then removed from the smooth muscle sections using 10^−4 M of CHAPS (3-[(3-cholamidopropyl) dimethylammonio]-1-propanesulfonate, 0.3% in buffer solution; Sigma) as a lysis buffer. Subsequently, as another neurotransmitter, zinc-protoporphyrin-IX (ZnPP) was administrated thereto, which inactivates heme oxygenase-2 (HO-2) that produces carbon monoxide (CO) that is in vivo produced by blood and acts as a vasodilator.

[4] = tested on: penile corpus cavernosum smooth muscles; experiment: Compound 1-induced relaxation upon blocking of the NO pathway (L-NAME, methylene blue); design: species or system New Zealand white rabbit; settings: FIG. 4
From the text: To confirm the effects of the compound 1 on relaxation of the penile corpus cavernosum smooth muscles upon blocking of a NO pathway, the penile corpus cavernosum smooth muscle sections were contracted by the treatment of phenylephrine, relaxed by the treatment of the compound 1, and then sequentially treated with methylene blue as an inhibitor against guanylate cyclase that helps production of c-GMP and with L-NAME (L-nitroarginine methyl ester) that inhibits production of NO via inhibitory activity against eNOS.

[5] = target: Phosphodiesterase type 5 (PDE 5) (Homo sapiens, UniProt O76074); settings: cited from earlier work

In the case of `NC(=O)c1ncn([C@@H]2O[C@H](CO)[C@@H](O)[C@H]2O)c1N` [AICAR, 5-aminoimidazole-4-carboxamide-1-beta-D-ribofuranoside, reference compound], the “Relaxation (%)” value [1] is reported as 10% and the “average of the highest internal pressure increase of the penile corpus cavernosum after electrostimulation” value (diabetes-induced rats) is reported as 4.3±1.0 mmHg.

For `CC(=O)OCC[N+](C)(C)C` [Acetylcholine, acetylcholine], the “Relaxation (%)” value [1] was 21%.

With `CC1(C)CCC2=C(O1)c1ccccc1C(=O)C2=O` [Compound 1, β-lapachone] the “phosphorylation of eNOS (p-eNOS) at 2 hours” value ([2]; 2 hours) was “not observed”, the “time at which phosphorylation of eNOS (p-eNOS) is maximized” value [2] was 30 min and the “relaxation of the CHAPS-administration group (no Znpp) relative to relaxation of the compound 1-administration group” value ([3]; 10^−4 M CHAPS, endothelial cells removed) was “about 45%”. The “relaxation of the ZnPP-administration group” value ([3]; CHAPS plus zinc-protoporphyrin-IX (ZnPP), FIGS. 5 and 6) was “almost completely inhibited”, the “relaxation caused by the compound 1 after L-NAME and methylene blue” value ([4]; 10^−3 M of L-NAME and 10^−3 M of methylene blue) was “partially inhibited” and the “inhibition of relaxation by methylene blue compared to the L-NAME-treatment group” value ([4]; methylene blue 10^−4 M) was “more greatly inhibited”. For the same compound, the “Relaxation (%)” value [1] was 92%, the “relaxation effects of penile corpus cavernosum smooth muscles (FIG. 2)” value ([1]; concentration range of 10^−9 to 10^−7 M) was “about double that of the SNP-administration group” and the “average of the highest internal pressure increase of the penile corpus cavernosum after electrostimulation” value (diabetes-induced rats) was 9.7±5.1 mmHg.

With `CN(C)C(=N)N=C(N)N` [Metformin, metformin] the “Relaxation (%)” value [1] was 0.1%.

In the case of `CCCc1nn(C)c2c(=O)[nH]c(-c3cc(S(=O)(=O)N4CCN(C)CC4)ccc3OCC)nc12` [Viagra], the “selectivity of PDE 5 inhibition” value [5] is listed as ≥ 4,000 folds.

With `CCCOc1ccccc1-c1nc2nn[nH]c2c(=O)[nH]1` [Zaprinast] the “Relaxation (%)” value [1] was 36%.

Source: US20120114714A1, “METHOD FOR THE TREATMENT AND PREVENTION OF ERECTILE DYSFUNCTION” (priority 2006, published 2012)
